Data set [1] relates to rats with myocardial infarction (MI)-induced heart failure. Kind of data set: Hemodynamics in rats with MI-induced heart failure (Millar PV loop). Type of data set: in vivo, Lewis rats. Particulars: continuous i.v. infusion, 30 min per dose. The procedure: To assess the cardiovascular effects of modified apelin polypeptides, the polypeptides were administered to rats with myocardial infarction (MI)-induced heart failure. Cardiac function was assessed via the Millar PV loop system.
Male Lewis rats at 2-3 month of age were used for the studies. MI was induced by ligation of the left anterior descending coronary artery (LAD). Echocardiography was performed at 1 week post-MI for animal enrollment. If ejection fraction (EF) was more than 40% and no infarct was identified from echocardiography images, these animals were excluded from the study. A Millar PV loop catheter was inserted into the right common carotid artery and then advanced to the left ventricle (LV) for cardiovascular hemodynamic assessment. The arterial pressure catheter was inserted into a femoral artery for peripheral blood pressure monitoring. Experiments were performed six to seven weeks following induction of MI. The following apelin polypeptides were given intravenously via jugular vein at various doses.
Peptides were continuously infused for 30 min at each dose. At the end of the experiment, the infarct size was verified by gross morphology. FIGS. 6-8 show the results of these experiments. The infarct size (38-39% of LV) was very similar among groups. […] Contractility (dp/dt max), ejection fraction (EF), mean arterial pressure (MAP), and heart rate (HR) changes over baseline are reported at the end of the 30 min infusion period for each polypeptide.

The subject of data set [2] is Rat Peritoneal Mast Cells.
Data set [3] has as its system isolated perfused rat hearts. Kind of data set: Langendorff isolated perfused rat heart. The settings on record: FIGS. 4A-D and 5A-D. The source says: To assess the hemodynamic cardiac function of the peptides, a Langendorff isolated heart system was used. The isolated heart from rat provides a broad spectrum of measurements that can include biochemical, metabolic, morphological and physiological indices. Although the system lacks neurohormonal influences, neural regulation and high coronary flows, the advantages of the system include the ability to study direct cardiac effects without systemic circulation and a host of peripheral interactions. This method can yield excellent dose-response relationships and provides critical insight into the pharmacological and physiological properties of the molecules of interest.
Animals were anesthetized through administration of 50-100 mg/kg dose of sodium pentobarbital via the intraperitoneal route. The heart was excised and gently cradled between fingers to avoid injury followed by lifting slightly before incising the aorta, vena cava and pulmonary vessels. Immediately after excision of the heart with aorta, the heart was mounted onto the cannula in the Langendorff apparatus via the aorta. […] The pressure was measured through a pressure sensing balloon catheter inserted in the left ventricular cavity. The intrinsic inotropy (force of muscle contraction) and lusitropy (cardiac relaxation) effects of the heart were assessed by dp/dtmax and dp/dtmin.

A short description of data set [4]: In vitro stability in rat plasma. It is filed as in vitro ADME. Put shortly: (§1)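 Apelin peptides spiked to 5 μM final into rat plasma, liver homogenate or kidney homogenate and incubated at 37° C. for up to 4 hr. Aliquots quenched with MeOH containing internal standard, centrifuged, and supernatants analysed by high-resolution LC-MS.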
A short description of data set [5]: In vitro stability in rat liver homogenate. Type of data set: in vitro ADME. Particulars: tissue homogenate. Put shortly: as §1
A short description of data set [6]: In vitro stability in rat kidney homogenate. Type of data set: in vitro ADME. Particulars: rat, tissue homogenate. Put shortly: as §1
For a further data set, the target named is T1, rat APJ receptor (Rattus norvegicus, UniProt Q9JHG3).
T1 construct: expressed in transfected cells
T1 sequence (Q9JHG3 1-377): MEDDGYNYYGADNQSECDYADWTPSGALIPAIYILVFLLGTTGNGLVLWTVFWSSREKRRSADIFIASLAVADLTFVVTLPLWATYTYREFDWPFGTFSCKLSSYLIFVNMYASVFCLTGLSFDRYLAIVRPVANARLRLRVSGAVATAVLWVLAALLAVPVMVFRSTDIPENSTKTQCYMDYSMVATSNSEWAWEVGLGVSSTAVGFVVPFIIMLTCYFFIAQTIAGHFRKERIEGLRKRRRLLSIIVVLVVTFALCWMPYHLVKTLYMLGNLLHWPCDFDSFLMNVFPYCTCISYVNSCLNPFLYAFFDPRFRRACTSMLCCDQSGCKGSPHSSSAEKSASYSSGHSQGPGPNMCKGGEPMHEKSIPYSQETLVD
Briefly: [35S] GTPγS assay, rat APJ receptor. Type of data set: biochemical. The settings on record: rat APJ receptor, read-out: EC50 Rat APJ Receptor. The procedure: The membranes were incubated with modified peptides in the assay buffer. […] Bound [^35S] GTPγS was separated from free radiolabel by filtration. The filter bound radioactivity was determined by liquid scintillation counting.
(In general: Binding of GTPγS marks nucleotide exchange on a G protein.)

A further data set concerns Human Mast Cells. Kind of data set: Mast cell degranulation (histamine release), human mast cells. It is filed as cell-based. The settings on record: human mast cells derived from CD34+ peripheral blood cells; 0.005 to 30 μM, 37° C., 30 min; less than 30% of total histamine content = negative. How it is done: Mast cell degranulation was measured for a number of the modified apelin polypeptides as follows in order to determine the potential immunogenic effect of the peptides. Mast cell degranulating peptide (MCDP) and compound 48/80 were used as positive controls. MCDP was obtained from Alomone Labs (Israel). Compound 48/80 was obtained from Sigma (Saint Louis, […].). Histamine Elisa kit was obtained from NEOGEN (Lexington, Ky.). Tyrode's buffer was obtained from Sigma (#T2397).
Mature human mast cells were derived from CD34+peripheral blood precursor cells after an 8-12 week differentiation/maturation process in vitro. […] Mast cell maturation was confirmed via expression of the mast cell markers c-kit and FcεRI via flow cytometry (>75% positive) and histamine release.
Mast cells (human or rat) were washed in Tyrode's buffer and seeded on 96-well plates (approx. 2000 mast cells/well). A 10 point dilution of test compounds were prepared in Tyrode's buffer and were incubated (0.005 to 30 μM) with mast cells at 37° C. for 30 min. […] A mast cell surfactant control is compared to a mast cell Tyrode's buffer control to ensure surfactants are not inducing histamine release in the absence of the lipidated molecule. Histamine release was quenched by placing the plates on ice for 5 min. Cells were centrifuged at 350×g at 4° C. for 5 min and the supernatant was collected. Released histamine was quantified by ELISA (Neogen Corporation) as per the kits' instruction. Briefly, the absorbance was measured at 650 nm in a microplate reader, following a direct competitive ELISA reaction with test samples compared against a standard curve. Total histamine content of the cells (0.1% Triton X-100) and spontaneous release were also measured to determine the percent of histamine release. Percent histamine release was calculated by the following formula: % histamine release=(ng/ml histamine release by test article−ng/ml spontaneous histamine release in Tyrode's buffer)/(ng/ml total histamine content of cells lysed in 0.1% Triton X-100−ng/ml spontaneous histamine release in Tyrode's buffer)×100.

A short description of the next data set: liver homogenate. Particulars: rat, 37° C., up to 4 hr.
Another data set can be described thus: kidney homogenate. Particulars: rat, 37° C., up to 4 hr.

Non-standard residues stand in square brackets, D forms with d. Residues, ends and D or L forms follow the SMILES beside them. No end group written: not given here. ξ: configuration not given here. dBip = N[C@H](Cc1ccc(-c2ccccc2)cc1)C(=O)O; Oic = O=C(O)[C@@H]1C[C@@H]2CCCC[C@@H]2N1; Phe(4-Cl) = N[C@@H](Cc1ccc(Cl)cc1)C(=O)O; Oic(3aξ,7aξ) = O=C(O)[C@@H]1CC2CCCCC2N1; Phe(4-I) = N[C@@H](Cc1ccc(I)cc1)C(=O)O; hArg = N=C(N)NCCCC[C@H](N)C(=O)O; Cha = N[C@@H](CC1CCCCC1)C(=O)O; NMeL = CN[C@@H](CC(C)C)C(=O)O; Nle = CCCC[C@H](N)C(=O)O Bounds are passed on as bounds.

Experimental findings from patent publication US11807693B2 (priority 2014, dated 2023) are described below.

Turning to “109 (QRP[hArg][Cha]SHKG[Oic][Nle]P[Phe(4-Cl)]-OH; not fully specified (N-terminus)) [compound 109]”, the “hemodynamic function (dp/dt max, EF, MAP, HR) in MI rats” value (shortened to “hemodynamic function”) in data set [1] was “dose-dependent effects”.

On to `CSCC[C@H](NC(=O)[C@@H]1CCCN1C(=O)CNC(=O)[C@H](CCCCN)NC(=O)[C@H](Cc1cnc[nH]1)NC(=O)[C@H](CO)NC(=O)[C@H](CC(C)C)NC(=O)[C@H](CCCNC(=N)N)NC(=O)[C@@H]1CCCN1C(=O)[C@H](CCCNC(=N)N)NC(=O)[C@@H]1CCC(=O)N1)C(=O)N1CCC[C@H]1C(=O)N[C@@H](Cc1ccccc1)C(=O)O` [SEQ ID NO: 6, reference compound], for which the “hemodynamic function” value in data set [1] was “dose-dependent effects”. Moreover, the “Cause Histamine Release?” value in [2] was “No”.

Turning to `CC(=O)N[C@@H](CCCCNC(=N)N)C(=O)N[C@H](CCCNC(=N)N)C(=O)N[C@@H](CCC(N)=O)C(=O)N[C@@H](CCCCNC(=N)N)C(=O)N1CCC[C@H]1C(=O)N[C@H](CCCNC(=N)N)C(=O)N(C)[C@@H](CC(C)C)C(=O)N[C@@H](CO)C(=O)N[C@@H](Cc1c[nH]cn1)C(=O)N[C@@H](CCCCN)C(=O)NCC(=O)N1C2CCCCC2C[C@H]1C(=O)N[C@@H](Cc1ccc(I)cc1)C(=O)N1CCC[C@H]1C(=O)N[C@H](Cc1ccc(-c2ccccc2)cc1)C(=O)O` (stereo partly drawn) [SEQ ID NO: 16, Acetyl-[hArg][r]Q[hArg]P[r][NMeLeu]SHKG[Oic][pI-Phe]P[D-Bip]{COOH}] (Ac-[hArg][dR]Q[hArg]P[dR][NMeL]SHKG[Oic(3aξ,7aξ)][Phe(4-I)]P[dBip]-OH), in data set [3], the “systolic and diastolic function in isolated perfused rat hearts” value is “dose-dependent improvement of both systolic and diastolic function”.

For `CC(=O)N[C@@H](CCC(N)=O)C(=O)N[C@@H](CCCCNC(=N)N)C(=O)N1CCC[C@H]1C(=O)N[C@H](CCCNC(=N)N)C(=O)N(C)[C@@H](CC(C)C)C(=O)N[C@@H](CO)C(=O)N[C@@H](Cc1c[nH]cn1)C(=O)N[C@@H](CCCCN)C(=O)NCC(=O)N1C2CCCCC2C[C@H]1C(=O)N[C@@H](Cc1ccc(I)cc1)C(=O)N1CCC[C@H]1C(=O)N[C@H](Cc1ccc(-c2ccccc2)cc1)C(=O)O` (stereo partly drawn) [SEQ ID NO: 53, {Acetyl-NH}Q[hArg]Pr[NMeLeu]SHKG[Oic][pI-Phe]P[D-Bip]{COOH}] (Ac-Q[hArg]P[dR][NMeL]SHKG[Oic(3aξ,7aξ)][Phe(4-I)]P[dBip]-OH), the “systolic and diastolic function in isolated perfused rat hearts” value in data set [3] is “dose-dependent improvement of both systolic and diastolic function”.

Broadly, the share remaining is what is left of the initial amount, in per cent. For the compound `CC(=O)N[C@@H](CCCCNC(=N)N)C(=O)N[C@H](CCCNC(=N)N)C(=O)N[C@@H](CCC(N)=O)C(=O)N[C@@H](CCCCNC(=N)N)C(=O)N1CCC[C@H]1C(=O)N[C@H](CCCNC(=N)N)C(=O)N(C)[C@@H](CC(C)C)C(=O)N[C@@H](CO)C(=O)N[C@@H](Cc1c[nH]cn1)C(=O)N[C@@H](CCCCN)C(=O)NCC(=O)N1[C@H](C(=O)N[C@@H](Cc2ccc(I)cc2)C(=O)N2CCC[C@H]2C(=O)N[C@H](Cc2ccc(-c3ccccc3)cc2)C(=O)O)C[C@@H]2CCCC[C@@H]21` [compound 16] (Ac-[hArg][dR]Q[hArg]P[dR][NMeL]SHKG[Oic][Phe(4-I)]P[dBip]-OH), the “hemodynamic function” value in data set [1] is recorded as “dose-dependent effects”. Also, the share remaining at 4 h, 5 μM in [4] was found to be 86.1%; in [5], 40.7%; in [6], 44.5%.

One may read the EC50 as the concentration at which the effect is half-maximal. Take `CCCC[C@H](NC(=O)[C@@H]1CCCN1C(=O)CNC(=O)[C@H](CCCCN)NC(=O)[C@H](Cc1c[nH]cn1)NC(=O)[C@H](CO)NC(=O)[C@H](CC(C)C)NC(=O)[C@H](CCCNC(=N)N)N(C)C(=O)[C@@H]1CCCN1C(=O)[C@H](CCCNC(=N)N)NC(=O)[C@H](CCC(N)=O)NC(C)=O)C(=O)N1CCC[C@H]1C(=O)N[C@@H](Cc1ccc(Cl)cc1)C(=O)O` [compound 68]: the EC50 at rat APJ receptor stood at 0.384 nM. Further, in the data set with Human Mast Cells, the “Induce Histamine Release? Human Mast Cells” value is “No”. Moreover, the share remaining at 4 h, 5 μM was 59.6% in data set [4] and less than 1% in data set [5].

Take “{H2} [MerPr] (10K mPEG acetamide) Q R [aMePro] [hArg] [aMeLeu] S H K G P [Nle] P [4-Cl-F] {COOH}”: the not cleaved in the data set “liver homogenate” and in “kidney homogenate” was greater than 90.0 % remaining at 4 hours each time.

“{TDA}[AC4Abu][Aeea][Aeea]RQRP[hArg][NMeLeu]SHKG[Oic][pI-Phe]P[D-Bip]{COOH}”: the not cleaved in “liver homogenate” and in “kidney homogenate” was greater than 90.0 % remaining at 4 hours throughout.
